Laboratory results as given in patent publication US20040172685A1, “Method of using MAPK4 and orthologues thereof to control plant disease resistance and plant growth” (priority 1999, published 2004).

What was measured:
PDF1.2 mRNA = assay: MeJA treatment of plants, RNA gel blot of JA-responsive PDF1.2 mRNA; format: in vivo, Arabidopsis
THI2.1 mRNA = assay: MeJA treatment of plants, RNA gel blot of JA-responsive THI2.1 mRNA; format: in vivo, Arabidopsis; settings: for THI2.1 mRNA accumulation after MeJA treatment: not shown
[1] = nahG expressing wild type plants

`CC/C=C\CC1C(=O)CCC1CC(=O)OC` (stereo not drawn) [MeJA, methyl jasmonate] was tested, and the “PDF1.2 mRNA accumulation after MeJA treatment” value (PDF1.2 mRNA; mpk4/nahG plants) was “not inducible”, the “induction of PDF1.2 expression” value (PDF1.2 mRNA; mpk4 mutant plants, sprayed with 50 μM MeJA, harvested after 48 hours) was “failed to induce” and the “PDF1.2 mRNA accumulation after MeJA treatment” value (PDF1.2 mRNA; [1]) was “induced”. The “THI2.1 mRNA accumulation after MeJA treatment” value (THI2.1 mRNA; mpk4/nahG plants) was “not inducible”, the “induction of THI2.1 expression” value (THI2.1 mRNA; mpk4 mutant plants, sprayed with 50 μM MeJA, harvested after 48 hours, data not shown) was “failed to induce” and the “THI2.1 mRNA accumulation after MeJA treatment” value (THI2.1 mRNA; [1]) was “induced”.
